Key:
[1] = tested on: cells of the human osteosarcoma line SAOS; test: Apoptosis in SAOS cells, cell permeabilization and PI staining; assay type: cell-based; conditions: 72 h; for % of apoptosis, incubation Etoposide (5 microM) / % of apoptosis, incubation Topotecan (40 ng/ml): without or with oligo 5 microM
Method: Cells of the SAOS line were incubated for 72 h in 10% FCS-RPMI without or with chemotherapeutic compounds (etoposide or topotecan) and/or the BAG3 antisense or control nonsense phosphorothioate oligodeoxynucleotides (5 microM) described in the text. Then cell apoptosis was analysed by cell permeabilization and PI staining according to ref.11.

BAG3 = BAG3 mRNA (PCR) and protein (immunofluorescence) levels in primary B-CLL cells; assay type: cell-based, human
Method: FIG. 1—Expression of BAG3 mRNA and protein in primary cells from leukemia patients. Leukemic cells were isolated from B-CLL patients' peripheral blood specimens by centrifugation through Ficoll-Hypaque (13) and cultured for 24 hours in RPMI 1640 medium supplemented with 10% fetal calf serum (10% FCS-RPMI), without or with fludarabine phosphate. A panel: cell mRNA was the extracted and BAG3 expression was verified by PCR (GAPDH expression is shown for comparative purpose); B panel: cells were permeabilised and analysed by indirect immunofluorescence with the polyclonal antibody AC-BAG3-1. A=control rabbit Ig; b=cells incubated with control medium and analysed with anti-BAG3; c=cells incubated with fludarabine and analysed with anti-BAG3.
FIG. 2—Downmodulation of BAG3 protein levels by anti-BAG3 antisense oligodeoxynucleotides. Leukemic cells were isolated from B-CLL patients' peripheral blood specimens by centrifugation through Ficoll-Hypaque and cultured for 20 hours without (b) or with BAG3 antisense (b+α) or control nonsense (b+ν) phosphorothioate oligodeoxynucleotides (5 microM) described in the text. Then cells were permeabilised and analysed by indirect immunofluorescence with the polyclonal antibody AC-BAG3-1. a=control rabbit Ig.

BAG3 protein = target: T1, BAG3 protein (Homo sapiens, UniProt O95817); test: BAG3 protein in ALL cells, Western blot and intracellular immunofluorescence; assay type: cell-based; conditions: oligo 5 microM, 24 hr
T1 construct: endogenous in cells; host or cells: primary leukemic cells from patients' peripheral blood (B-CLL, acute leukemia)
T1 sequence (O95817 whole entry): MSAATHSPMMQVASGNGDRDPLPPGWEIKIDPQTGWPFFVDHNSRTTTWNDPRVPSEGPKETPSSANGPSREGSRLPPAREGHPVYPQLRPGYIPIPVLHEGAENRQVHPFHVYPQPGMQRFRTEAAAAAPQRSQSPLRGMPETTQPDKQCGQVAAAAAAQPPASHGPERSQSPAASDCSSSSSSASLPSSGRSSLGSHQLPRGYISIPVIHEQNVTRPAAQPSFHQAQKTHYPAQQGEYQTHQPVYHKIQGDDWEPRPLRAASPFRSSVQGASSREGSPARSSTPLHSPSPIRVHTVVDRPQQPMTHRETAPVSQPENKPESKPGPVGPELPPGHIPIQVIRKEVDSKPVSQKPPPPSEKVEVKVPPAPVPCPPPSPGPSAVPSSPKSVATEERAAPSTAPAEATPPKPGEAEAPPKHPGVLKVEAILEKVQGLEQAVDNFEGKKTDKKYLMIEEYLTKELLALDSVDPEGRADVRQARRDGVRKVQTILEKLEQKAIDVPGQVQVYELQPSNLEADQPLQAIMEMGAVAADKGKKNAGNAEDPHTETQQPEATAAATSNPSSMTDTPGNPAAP
Method: FIG. 11 Expression of BAG3 protein in ALL cells and its downmodulation by BAG3-specific antisense oligonucleotides. A—ALL cells (1×10^6/ml) were cultured in 10% FCS-RPMI without or with control nonsense ([…], SEQ ID NO 12, nonsense 1) or BAG3-specific antisense ([…], SEQ ID NO 9, antisense 1) oligonucleotides (5 microM) for 24 hr. Then cell lysates were obtained and analyzed in Western blot with anti-BAG3 (AC-BAG3-1; analogous results were obtained With AC-BAG3-2) or anti-tubulin antibodies. B—ALL cells (1×10^6/ml) were cultured in 10% FCS-RPMI without or with BAG3-specific antisense ([…], SEQ ID NO 9, antisense 1) (a) or control nonsense ([…], SEQ ID NO 12, nonsense 1) (b) oligonucleotides (5 microM) for 24 hr. Then the cells were analyzed by intracellular immunofluorescence with the anti-BAG3 polyclonal antibody. Negative controls with a control rabbit antibody preparation are shown on the left in a and b.

Molecule | % of apoptosis, incubation Etoposide (5 microM) [1] [%] | % of apoptosis, incubation Topotecan (40 ng/ml) [1] [%] | also measured
COc1cc([C@@H]2c3cc4c(cc3[C@@H](O[C@@H]3O[C@@H]5CO[C@@H](C)O[C@H]5[C@H](O)[C@H]3O)[C@H]3COC(=O)[C@H]23)OCO4)cc(OC)c1O [Etoposide, etoposide] | 38.32 |  | 
CC[C@@]1(O)C(=O)OCc2c1cc1n(c2=O)Cc2cc3c(CN(C)C)c(O)ccc3nc2-1 [Topotecan, topotecan] |  | 36.84 | 
Nc1nc(F)nc2c1ncn2[C@@H]1O[C@H](COP(=O)(O)O)[C@@H](O)[C@@H]1O [fludarabine, fludarabine phosphate] |  |  | BAG3 mRNA levels (BAG3; 24 hours, PCR): enhanced; BAG3 protein levels (BAG3; immunofluorescence, 11 of 13 BAG3-positive specimens (18 examined)): upregulated
antisense 1: BAG3 antisense phosphorothioate oligodeoxynucleotide TGCATCATGGGCGAGTGGGTGGCGG (antisense TGCATCATGGGCGAGTGGGTGGCGG; DNA, all phosphorothioate, methylation of C not given here; listed as Homo sapiens) |  |  | BAG3 protein in ALL cells (BAG3 protein): downmodulation
control nonsense: control nonsense phosphorothioate oligodeoxynucleotides described in the text; which of nonsense 1-3 is not stated (DNA TTATATTCTATTATATTTATGAACTCC; DNA, all phosphorothioate, methylation of C not given here; listed as Homo sapiens) | 45.40 | 41.60 | % of apoptosis, incubation control medium ([1]; oligo 5 microM, no chemotherapeutic compound): 25.84%

Source: patent US7537760B2, “Monoclonal antibodies recognizing BAG3 protein sequences and their use in diagnostic and therapy of cell death-involving diseases” (priority 2001, dated 2009)
